Assay results: patent US4769389A, “Oxygenated-alkyl derivatives of glutamic and aspartic acids with antagonistic activity to bio-active polypeptides and a method for their preparation” (priority 1985, dated 1988)
Converted amounts (≈) assume the structure as drawn. Like-named read-outs stand apart in the source and are kept apart here.

Key:
guinea-pig gallbladder = assay: Anti-CCK activity on guinea-pig gallbladders in vitro (contraction by CCK-8); conditions: for IC50: Cavia porcellus, CCK-8 10 ng/ml, in vitro
Experimental: ANTI-CCK ACTIVITY ON GUINEA-PIG GALLBLADDERS IN VITRO A longitudinal strip of guinea-pig gallbladder is placed in a bath for isolated organs in Krebs at a temperature of 32° C. and oxygenated continuously with an oxygen-CO2 mixture (95-[…]). The isometric contractions were detected by means of a force transducer and recorded. […] The results obtained are shown in Table 3 which gives the compounds tested and the IC50 values found which were calculated by the method of regression in a test of at least three experiments for each compound studied.

guinea pig gall bladders = assay: Anti-CCK-8 activity on guinea-pig gallbladders in situ (in vivo); conditions: Cavia porcellus, iv; CCK-8 10 ng/kg i.v.; compound i.v.; read-out: ID50, anti-CCK-8 activity in situ
Experimental: In order to confirm the evidence of the studies in vitro, several of the more interesting compounds were tested in vivo with the use of guinea-pig gallbladders in situ.
The method used was that described by Ljungberg (Svensk. Farm. Tidskr. 69, 351-354, 1964).
Guinea-pigs having a weight of about 400 g anaesthetised with urethane were used; the substances being tested were administered intravenously (i.v.) into the jugular vein.
The responses of the gallbladder to the substances being tested were detected by means of a force transducer and recorded by means of a microdynamometer. 10 ng/kg of CCK 8 were chosen as the optimum contracting dose. The antagonistic compounds tested were administered in increasing doses so as to enable the calculation of an ID50 value, that is the dose (in mg/kg i.v.) having a 50% inhibiting effect against contractions induced by 10 ng/kg i.v. of CCK-8.

digestive tract = assay: Antispastic activity, vegetable carbon test (speed of transit through stomach and intestine) in mice; format: in vivo; conditions: Mus musculus, ip, read-out: A[…] ED50 (dose which reduces the intestinal transit time of the carbon by 50%), intraperitoneally
From the text: The anti-spastic activity which the present compounds exert on the whole of the digestive tract is also considerable. Measured in mice with the vegetable carbon test (speed of transit through the stomach and intestine) this activity is illustrated in the following table: […]

colon of rabbits = assay: Antispastic activity in the colon of rabbits stimulated with CCK-8; format: in vivo, rabbit; set-up: Antispastic activity in colon, EXPERIMENT 1 / Antispastic activity in colon, EXPERIMENT 2: unit not given here; conditions: CCK 100 ng/kg
Experimental: The abdomen of anaesthetised rabbit is cut open to display the tranverse colon. A small balloon full of water is inserted at an established point and connected to a pressure transducer by means of a polyethylene cannula filled with H2 O.
The optimum sensitivity being fixed in relation to the physiological contractions, the products were administered through the femeral vein. Contractions were induced by the administration of 100 ng/kg of CCK.

[1] = test system: pancreatitis in mice induced experimentally by cerulein; assay: Pancreatitis induced by cerulein in mice; format: in vivo; conditions: for ED50: Mus musculus, ip, cerulein, mice
Experimental: Adult male mice received six injections of cerulein (Takus) (50 mcg/kg) each hour for six hours.
The compound was administered 30 minutes before each administration of cerulein. Nine hours after the beginning of the treatment, the blood was taken from the rectro-orbitory plexus after anaesthesia with ether, the animals were killed and the pancreas removed and weighed.

[2] = test system: pancreatitis in rats induced experimentally by taurocholate; assay: Pancreatitis induced by sodium taurocolate in rats; format: in vivo; conditions: for ED50: Rattus norvegicus, ip, taurocholate, rats
Experimental: The products under examination were administered intraperitoneally (i.p.) 30 minutes before the operation and 3 hours after the operation. Six hours after the laparatomy the blood was removed from the retro-orbitory plexus after anaesthesia with ether, the animals were killed and the pancreas was removed and weighed. The activity of the serum amylase was determined by the method described above.

in vivo = conditions: mouse, iv

CCCCCN(CCOCC)C(=O)C(CCC(=O)O)NC(=O)c1ccc(Cl)c(Cl)c1 (centres unmarked) [Compound 2]
IC50 (guinea-pig gallbladder): 0.1 µg/mL (≈ 0.217 µM)
50% antagonising concentration relative to that of the specific agonist (guinea-pig gallbladder; vs CCK-8 10 ng/ml): about 10 times
ED50 (guinea pig gall bladders): 0.1 mg/kg
ED50 (digestive tract): 14 mg/kg
Antispastic activity in colon, EXPERIMENT 1 (colon of rabbits; 0.3 mg/kg i.v.): -9.8
Antispastic activity in colon, EXPERIMENT 2 (colon of rabbits; 0.3 mg/kg i.v.): -27.2
Antispastic activity in colon, EXPERIMENT 1 (colon of rabbits; 1 mg/kg i.v.): -45.1
Antispastic activity in colon, EXPERIMENT 2 (colon of rabbits; 1 mg/kg i.v.): -39.8
Antispastic activity in colon, EXPERIMENT 1 (colon of rabbits; 3 mg/kg i.v.): -88.0
Antispastic activity in colon, EXPERIMENT 2 (colon of rabbits; 3 mg/kg i.v.): -92.4
ED50 (colon of rabbits; Oryctolagus cuniculus, iv): 1.47 mg/kg
AMYLASE IN THE SERUM ([1]; 5 mg/kg ip + cerulein): 54.7 U/ml
INHIBITION OF WEIGHT INCREASE ([1]; 5 mg/kg ip + cerulein): 55.2%
INHIBITION OF WEIGHT INCREASE (pancreas) ([1]; 5 mg/kg ip + cerulein): 24.5%
RATIO WEIGHT OF PANCREAS / ANIMAL WEIGHT ([1]; 5 mg/kg ip + cerulein): 0.54%
AMYLASE IN THE SERUM ([1]; 7.5 mg/kg ip + cerulein): 21.7 U/ml
INHIBITION OF WEIGHT INCREASE ([1]; 7.5 mg/kg ip + cerulein): 88.3%
INHIBITION OF WEIGHT INCREASE (pancreas) ([1]; 7.5 mg/kg ip + cerulein): 61.2%
RATIO WEIGHT OF PANCREAS / ANIMAL WEIGHT ([1]; 7.5 mg/kg ip + cerulein): 0.45%
AMYLASE IN THE SERUM ([1]; 10 mg/kg ip + cerulein): 11.8 U/ml
INHIBITION OF WEIGHT INCREASE ([1]; 10 mg/kg ip + cerulein): 98.3%
INHIBITION OF WEIGHT INCREASE (pancreas) ([1]; 10 mg/kg ip + cerulein): 89.8%
RATIO WEIGHT OF PANCREAS / ANIMAL WEIGHT ([1]; 10 mg/kg ip + cerulein): 0.38%
ED50 ([1]; read-out: ED50 (inhibition of weight increase)): 4.6 mg/kg
ED50 ([1]; read-out: ED50, inhibition of weight increase of the pancreas): 6.3 mg/kg
AMYLASE IN THE SERUM ([2]; 5 mg/kg i.p. + taurocholate): 10.6 U/ml
INHIBITION OF AMYLASE INCREASE ([2]; 5 mg/kg i.p. + taurocholate): 28.2%
INHIBITION OF WEIGHT INCREASE ([2]; 5 mg/kg i.p. + taurocholate): 44.4%
RATIO WEIGHT OF PANCREAS / ANIMAL WEIGHT ([2]; 5 mg/kg i.p. + taurocholate): 0.50%
AMYLASE IN THE SERUM ([2]; 10 mg/kg i.p. + taurocholate): 8.9 U/ml
INHIBITION OF AMYLASE INCREASE ([2]; 10 mg/kg i.p. + taurocholate): 71.8%
INHIBITION OF WEIGHT INCREASE ([2]; 10 mg/kg i.p. + taurocholate): 63.0%
RATIO WEIGHT OF PANCREAS / ANIMAL WEIGHT ([2]; 10 mg/kg i.p. + taurocholate): 0.45%
AMYLASE IN THE SERUM ([2]; 20 mg/kg i.p. + taurocholate): 7.7 U/ml
INHIBITION OF AMYLASE INCREASE ([2]; 20 mg/kg i.p. + taurocholate): 102.6%
INHIBITION OF WEIGHT INCREASE ([2]; 20 mg/kg i.p. + taurocholate): 74.1%
RATIO WEIGHT OF PANCREAS / ANIMAL WEIGHT ([2]; 20 mg/kg i.p. + taurocholate): 0.42%
ED50 ([2]; read-out: ED50, inhibition of amylase increase): 8.6 mg/kg
ED50 ([2]; read-out: ED50, inhibition of weight increase): 10.1 mg/kg
LD50 (in vivo): 338 mg/kg
selectivity ratio (in vivo): 3380

CCCCCN(CCCOCC)C(=O)C(CCC(=O)O)NC(=O)c1ccc(Cl)c(Cl)c1 (centres unmarked) [Compound 3]
IC50 (guinea-pig gallbladder): 0.6 µg/mL (≈ 1.26 µM)
ED50 (guinea pig gall bladders): 0.75 mg/kg
ED50 (digestive tract): 25 mg/kg
LD50 (in vivo): 298 mg/kg
selectivity ratio (in vivo): 397

CCCCCN(CCOC)C(=O)C(CCC(=O)O)NC(=O)c1ccc(Cl)c(Cl)c1 (centres unmarked) [Compound 5]
IC50 (guinea-pig gallbladder): 0.8 µg/mL (≈ 1.79 µM)
ED50 (guinea pig gall bladders): 0.68 mg/kg
ED50 (digestive tract): 20.8 mg/kg
LD50 (in vivo): 485 mg/kg
selectivity ratio (in vivo): 713

CCCCCN(CCCOC)C(=O)C(CCC(=O)O)NC(=O)c1ccc(C)c(C)c1 (centres unmarked) [Compound 7]
IC50 (guinea-pig gallbladder): 0.9 µg/mL (≈ 2.14 µM)
ED50 (guinea pig gall bladders): 0.65 mg/kg
ED50 (digestive tract): 33.9 mg/kg
LD50 (in vivo): 440 mg/kg
selectivity ratio (in vivo): 677
